Measurements as given in patent US6319678A, “Process for glucuronidation screening” (PanVera Corporation, priority 1999, dated 2001).

What was measured:
[1] = background; cited from earlier work
[2] = background; cited from earlier work; remark: listed apart in the source
UGT1A1 = details: as in patients with Gilbert's syndrome; background; cited from earlier work
[3] = target: bacterial b-glucuronidase (Escherichia coli, UniProt P05804); experiment: Inhibition of b-glucuronidase cleavage of 4-methylumbelliferyl-b-D-glucuronide by competitor b-D-glucuronides (FIG. 2); format: biochemical; details: 20 μM 4-methylumbelliferyl-b-D-glucuronide, result in words
Chain of bacterial b-glucuronidase (P05804 whole entry): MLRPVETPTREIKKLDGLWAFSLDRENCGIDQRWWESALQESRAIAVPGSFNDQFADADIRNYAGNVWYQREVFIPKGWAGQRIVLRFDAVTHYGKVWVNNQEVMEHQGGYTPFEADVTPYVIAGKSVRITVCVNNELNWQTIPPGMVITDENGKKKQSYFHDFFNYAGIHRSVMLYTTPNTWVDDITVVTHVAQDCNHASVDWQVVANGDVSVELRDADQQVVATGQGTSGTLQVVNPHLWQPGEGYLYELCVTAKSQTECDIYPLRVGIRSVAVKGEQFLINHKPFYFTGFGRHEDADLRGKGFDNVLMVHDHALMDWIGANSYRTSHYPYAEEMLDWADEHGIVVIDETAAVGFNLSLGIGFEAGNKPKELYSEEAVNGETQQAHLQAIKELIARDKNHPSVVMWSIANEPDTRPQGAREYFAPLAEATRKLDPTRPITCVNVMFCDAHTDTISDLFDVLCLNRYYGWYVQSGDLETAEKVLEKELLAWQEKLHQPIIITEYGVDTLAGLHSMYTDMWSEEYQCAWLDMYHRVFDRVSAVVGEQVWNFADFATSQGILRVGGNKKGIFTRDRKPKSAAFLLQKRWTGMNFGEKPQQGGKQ
Procedure: FIG. 1 Kinetic measurements of 4-methylumbelliferylb-D-glucuronide cleavage by b-gluuronidase. In part A, 100 μl assays were performed in triplicate using 100 mM Tris-HCl buffer, pH 7.4, containing 10 mM MgCl2, 0.1 μg/ml b-gluuronidase and 5 (.box-solid.), 20 (.tangle-solidup.), and 100 (.circle-solid.) μM, 4-methylumbelliferyl-b-D-glucuronide. Reactions were started by the addition of enzyme, incubated for indicated times at ambient temperature and then quenched with 100 μl of 0.1 M Na2 CO3, pH 9.5, containing 0.1% CHAPS. Fluorescence intensity was measured with a Beacon fluorescent polarization instrument (PanVera Corporation, Madison, Wis.) in intensity mode, using excitation and emission filters of 360 nm and 440 nm, respectively, and slit widths set at 10 nm. Part B, assays were performed in duplicate for 20 min as above with the indicated amount of 4-methylumbelliferyl-b-D-glucuronide. 4-Methyumbelliferone concentration was determined from a calibration curve.
FIG. 2 Inhibition curves. Assays were performed as described in the legend to FIG. 1B with 20 .quadrature.M 4-methylumbelliferyl-b-D-glucuronide and the indicated amount of competitor b-D-glucuronide. Fluorescence intensity due to 4-methylumbelliferyl-b-D-glucuronide cleavage, in the absence of a competitor was arbitrarily assigned as 100%. Competitors, α-napthyl b-D-glucuronide (.box-solid.), .quadrature.-trifluoromethylumbelliferyl-b-D-glucuronide (o), .quadrature.-estradiol 3-.quadrature.b-D-glucuronide) (.tangle-solidup.), p-acetominophenyl b-D-glucuronide (.circle-solid.), 5.quadrature.-androstane-3α, 17α-diol-11-one-17-carboxylic acid-3-(b-D-glucuronide) (.tangle-soliddn.) and UDPGA (.E-backward.) were dissolved in 100 mM Tris-HCl, containing 10 mM MgCl2, pH 7.5. Tetrahydrocortisone 3-b-D-glucuronide (.diamond-solid.) was prepared in DMSO. The DMSO in reaction mixtures was 0.1% or less.
Assay Principle: Cleavage of 4-methylumbelliferyl b-D-glucuronide by bacterial b-glucuronidase generates the highly fluorescent compound, 4-methylumbelliferone. Diverse b-D-glucuronides act as competitors of b-glucuronidase, thus providing the basis of a coupled assay method for detection of glucuronide production by recombinant UGT isozymes. […] The 4-methylumbelliferyl b-D-glucuronide cleavage assay can easily be adapted to high throughput formats to detect the presence of b-D glucuronides generated using recombinant glycosyl transferase preparations.
Methods are included in text and figure legends. b-D-glucuronidase (Part G-7396), α-napthyl b-D-glucuronide, b-trifluoromethylumbelliferyl b-D-glucuronide, b-estradiol 3-(b-D-glucuronide), p-acetominophenyl b-D-glucuronide, 5 .quadrature.-androstane-3α, 17α-diol-11-one-17-carboxilic acid-3-(b-D-glucuronide), UDPGA and 4-methylumbelliferone b-D-glucuronide were obtained from Sigma, St. Louis Mo. Tetrahydrocortisone 3-b-D-glucuronide was obtained from Molecular Probes, Eugene, Oreg. Recombinant control and UGT1A6 membrane preparations were generated at PanVera Corporation and are commercially available from PanVera, Madison Wis. All other reagents were analytical grade or better and purchased from a variety of commercial sources.
In order to show the feasibility of developing a high throughput inhibition assay, we examined the potential of a variety of structurally dissimilar commercially available b-D-glucuronides to act as inhibitors for the cleavage of 4-methylumbelliferyl-b-D-glucuronide. […]

recombinant human UGT1A6 = target: T1, recombinant human UGT1A6 (Homo sapiens, UniProt P19224); experiment: Coupled assay: extracted residues of UGT1A6 / α-naphthol incubation added to b-glucuronidase fluorescence assay (FIG. 3A); format: biochemical
T1 sequence (P19224 27-532): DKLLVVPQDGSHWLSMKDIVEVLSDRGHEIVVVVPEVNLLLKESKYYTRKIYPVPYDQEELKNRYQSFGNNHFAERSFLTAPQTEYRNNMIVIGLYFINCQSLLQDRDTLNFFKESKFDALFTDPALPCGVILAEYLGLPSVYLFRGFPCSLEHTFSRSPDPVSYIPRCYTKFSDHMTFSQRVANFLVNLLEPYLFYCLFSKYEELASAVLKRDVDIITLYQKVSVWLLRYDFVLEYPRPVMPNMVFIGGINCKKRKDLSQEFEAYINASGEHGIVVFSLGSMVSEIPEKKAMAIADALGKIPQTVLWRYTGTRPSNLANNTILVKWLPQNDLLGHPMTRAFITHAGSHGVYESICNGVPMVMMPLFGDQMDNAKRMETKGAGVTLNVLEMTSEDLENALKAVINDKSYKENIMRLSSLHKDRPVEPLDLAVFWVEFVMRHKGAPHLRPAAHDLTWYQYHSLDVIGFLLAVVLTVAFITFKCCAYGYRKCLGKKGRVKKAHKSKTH
Description: All other reagents were analytical grade or better and purchased from a variety of commercial sources.

UGT1A6 = experiment: Accumulation of naphthyl glucuronide in UGT1A6 assay using [14C] UDPGA; format: in vitro ADME, human; details: parallel experiment using [14C] UDPGA, data not shown
Procedure: Two approaches were taken to test the feasibility of coupling the UGT-dependent production of glucuronides to inhibition of fluorescent product formation by b-D-glucuronidase. The first involved extracting the UGT reaction products and adding them to the b-D-glucuronidase fluorescence assay reagents; the second involved adding the b-D-glucuronidase reaction components directly to the quenched UGT reaction. In the first approach, α-naphthyl b-D-glucuronide was generated in an incubation with recombinant human UGT1A6 and α-naphthol. Following extraction, 4-methylumbelliferyl-b-D-glucuronide assay reagents were added to the extracted, dried reaction residues. […] Inhibition of 4-methylumbelliferyl-b-D-glucuronide cleavage was dependent on the incubation time of the UGT1A6 assay, presumably reflecting increased .quadrature.-naphthyl glucuronide accumulation.

CN1CC[C@]23c4c5ccc(O[C@@H]6O[C@H](C(=O)O)[C@@H](O)[C@H](O)[C@H]6O)c4O[C@H]2[C@@H](O)C=C[C@H]3[C@H]1C5 [3-glucuronide]
activity towards morphine [1]: morphine antagonist

CN1CC[C@]23c4c5ccc(O)c4O[C@H]2[C@@H](O[C@@H]2O[C@H](C(=O)O)[C@@H](O)[C@H](O)[C@H]2O)C=C[C@H]3[C@H]1C5 [6-glucuronide of morphine]
analgesic potency relative to the parent compound morphine [2]: more potent analgesic than the parent compound

CCc1c2c(nc3ccc(OC(=O)N4CCC(N5CCCCC5)CC4)cc13)-c1cc3c(c(=O)n1C2)COC(=O)[C@]3(O)CC [Irinotecan]
toxicity associated with low expression of UGT1A1 (UGT1A1): associated with the toxicity

O=C(O)[C@H]1O[C@H](OP(=O)(O)OP(=O)(O)OC[C@H]2O[C@@H](n3ccc(=O)[nH]c3=O)[C@H](O)[C@@H]2O)[C@H](O)[C@@H](O)[C@@H]1O [Uridine 5'-diphosphoglucuronic acid]
inhibition of 4-methylumbelliferyl-b-D-glucuronide cleavage (production of 4-methylumbelliferone) by b-glucuronidase [3]: not an effective competitor over the range tested

C[C@]12CC[C@@H]3c4ccc(O[C@@H]5O[C@H](C(=O)O)[C@@H](O)[C@H](O)[C@H]5O)cc4CC[C@H]3[C@@H]1CC[C@@H]2O [b-estradiol-3-(b-D-glucuronide), b-estradiol 3-(b-D-glucuronide)]
inhibition of 4-methylumbelliferyl-b-D-glucuronide cleavage (production of 4-methylumbelliferone) by b-glucuronidase [3]: strongest | inhibition of 4-methylumbelliferyl-b-D-glucuronide cleavage (production of 4-methylumbelliferone) by b-glucuronidase ([3]; listed as estradiol b-D-glucuronide): More potent inhibitors

Oc1cccc2ccccc12 [α-naphthol]
interference of aglycone with the 4-methylumbelliferyl-b-D-glucuronide cleavage assay (recombinant human UGT1A6): does not interfere non-specifically

O=C(O)[C@H]1O[C@@H](Oc2cccc3ccccc23)[C@H](O)[C@@H](O)[C@@H]1O [α-naphthyl b-D-glucuronide]
inhibition of 4-methylumbelliferyl-b-D-glucuronide cleavage (production of 4-methylumbelliferone) by b-glucuronidase [3]: weakest | inhibition of 4-methylumbelliferyl-b-D-glucuronide cleavage (production of 4-methylumbelliferone) by b-glucuronidase ([3]; listed as α-naphthol b-D-glucuronide): weak competitive inhibitor | inhibition of 4-methylumbelliferyl-b-D-glucuronide cleavage by extracted residues of UGT1A6 assay (recombinant human UGT1A6; FIG. 3A, 0.6 mg/ml UGT1A6, 2 mM UDPGA, 0.6 mM α-naphthol, 37° C, ethyl acetate extraction, vs control microsomes): inhibited 4-methylumbelliferyl-b-D-glucuronide cleavage | accumulation of naphthyl glucuronide in the UGT1A6 assay (UGT1A6): independently verified
